Columns and labels:
riboswitch 15D10 [1] = experiment: Luciferase reporter with 15D10 riboswitch (Luci-15D10) in AML12 cells; assay type: cell-based, mouse; conditions: Mus musculus, AML12, 24 h, 50 μM, AML12 cells, read-out: Fold increase in riboswitch 15D10-regulated luciferase expression, AML
riboswitch 15D10 [2] = experiment: Luciferase reporter with 15D10 riboswitch (Luci-15D10) in HEK 293 cells; assay type: cell-based, human; conditions: Homo sapiens, HEK293, 24 h, 50 μM, HEK 293 cells, read-out: Fold increase in riboswitch 15D10-regulated luciferase expression, HEK
Outline: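 Cells transfected with riboswitch-luciferase plasmid; 4 h later medium replaced with TPP or thiamine analogs (fursultiamine, prosultiamine, bisbentiamine, beclotiamine, sulbutiamine) as inducers.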

Structure (SMILES)	fold induction at 50 µM (riboswitch 15D10 [1]; Table 2)	fold induction at 50 µM (riboswitch 15D10 [2]; Table 2)	fold induction at 50 µM (riboswitch 15D10 [1]; Table 3)	fold induction at 50 µM (riboswitch 15D10 [2]; Table 3)
C/C(=C(\CCO)SC(=O)C(C)c1ccccc1)N(C=O)Cc1cnc(C)nc1N (stereo not drawn) [Compound M54, (Z)—S-(2-(N-((4-amino-2-methylpyrimidin-5-yl)methyl)formamido)-5-hydroxypent-2-en-3-yl) 2-phenylpropanethioate]	13.9	3	–	–
C/C(=C(\CCO)SC(=O)c1cccc2cccc(F)c12)N(C=O)Cc1cnc(C)nc1N [Compound M45, (Z)—S-(2-(N-((4-amino-2-methylpyrimidin-5-yl)methyl)formamido)-5-hydroxypent-2-en-3-yl) 8-fluoronaphthalene-1-carbothioate]	2.9	1.3	–	–
C/C(=C(\CCO)SC(=O)c1c(F)cccc1Oc1ccccc1)N(C=O)Cc1cnc(C)nc1N [Compound M126, (Z)—S-(2-(N-((4-amino-2-methylpyrimidin-5-yl)methyl)formamido)-5-hydroxypent-2-en-3-yl) 2-fluoro-6-phenoxybenzothioate]	–	–	305	147
C/C(=C(\CCO)SC(=O)c1ccc2sccc2c1)N(C=O)Cc1cnc(C)nc1N [Compound M79, (Z)—S-(2-(N-((4-amino-2-methylpyrimidin-5-yl)methyl)formamido)-5-hydroxypent-2-en-3-yl) benzo[b]thiophene-5-carbothioate]	358	353	–	–
C/C(=C(\CCO)SC(=O)c1ccc(F)c2ccccc12)N(C=O)Cc1cnc(C)nc1N [Compound M44, (Z)—S-(2-(N-((4-amino-2-methylpyrimidin-5-yl)methyl)formamido)-5-hydroxypent-2-en-3-yl) 4-fluoronaphthalene-1-carbothioate]	314	177	–	–
C/C(=C(\CCO)SC(=O)c1ccc2ccccc2c1Br)N(C=O)Cc1cnc(C)nc1N [Compound M51, (Z)—S-(2-(N-((4-amino-2-methylpyrimidin-5-yl)methyl)formamido)-5-hydroxypent-2-en-3-yl) 1-bromonaphthalene-2-carbothioate]	189	392	–	–
CCOc1cc(C(C)(C)C)ccc1C(=O)S/C(CCO)=C(/C)N(C=O)Cc1cnc(C)nc1N [Compound M115, (Z)—S-(2-(N-((4-amino-2-methylpyrimidin-5-yl)methyl)formamido)-5-hydroxypent-2-en-3-yl) 4-(tert-butyl)-2-ethoxybenzothioate]	52.1	19.9	–	–
C/C(=C(\CCO)SC(=O)c1cc(Cl)ccc1Oc1ccccc1Br)N(C=O)Cc1cnc(C)nc1N [Compound M159, (Z)—S-(2-(N-((4-amino-2-methylpyrimidin-5-yl)methyl)formamido)-5-hydroxypent-2-en-3-yl) 2-(2-bromophenoxy)-5-chlorobenzothioate]	–	–	206	85.5
COc1ccc2c(C(=O)S/C(CCO)=C(/C)N(C=O)Cc3cnc(C)nc3N)cccc2c1 [Compound M108, (Z)—S-(2-(N-((4-amino-2-methylpyrimidin-5-yl)methyl)formamido)-5-hydroxypent-2-en-3-yl) 6-methoxynaphthalene-1-carbothioate]	129	75.8	–	–
C/C(=C(\CCO)SC(=O)c1ccccc1Oc1ccc(C(F)(F)F)nc1)N(C=O)Cc1cnc(C)nc1N [Compound M146, (Z)—S-(2-(N-((4-amino-2-methylpyrimidin-5-yl)methyl)formamido)-5-hydroxypent-2-en-3-yl) 2-((6-(trifluoromethyl)pyridin-3-yl)oxy)benzothioate]	–	–	96.6	53.3
C/C(=C(\CCO)SC(=O)c1ccccc1Oc1cccc(C#N)c1)N(C=O)Cc1cnc(C)nc1N [Compound M135, (Z)—S-(2-(N-((4-amino-2-methylpyrimidin-5-yl)methyl)formamido)-5-hydroxypent-2-en-3-yl) 2-(3-cyanophenoxy)benzothioate]	–	–	44.5	87.5

From patent publication US12570988B2, “Aptamers that bind thiamine analogs and derivatives” (MeiraGTx Gene Regulation Limited, priority 2020, dated 2026)
